The values below come from patent US4954485A, “2',3'-dideoxy-4-thio-uridine derivatives, process for their preparation and antivirus agents using them” (priority 1987, dated 1990).

Read-outs that look alike come from different tables or passages of the source.

Common to all, as to assay type: cell-based
The subject of assay [1] is Rous sarcoma virus (RSV). In words: Effect on Rous sarcoma virus (RSV): inhibition of transformation of chick embryo fibroblast, Table 2. The conditions noted are these: 4TO7, RSV infected about 30 minutes, judged under microscope after 4 to 7 days, concentration at which transformation was inhibited, read-out: Antivirus effect (on RSV), Concentration. The method, then: EXAMPLE 2. EFFECT ON ROUS SARCOMA VIRUS (RSV) Employing cultured cells of the first generation (chick embryo fibroblast),RSV was infected for about 30 minutes. To this were added the samples diluted stepwise, and, after 4 to 7 days, which stage the transformation of cells due to RSV infection was inhibited at was judged under microscope.

For assay [2], the system named is Moloney-murine leukemia virus. Put plainly: Antivirus effect on Moloney-murine leukemia virus in SC-1 cells (method of Rowe et al), Table 1. The source says:
(§1) The antivirus effect of the compound of general formula [II']of the invention was ascertained according to the test method by Rowe et al (J. W. Virology 1970, 42, 1136).
(§2) Virus: Moloney-murine leukemia virus.

In assay [3] the test system is Moloney-murine leukemia virus, RSV, HIV. Put plainly: Antivirus effect, summary of Table 1 through 3. The note with it: as shown in Table 1 through 3. The method, then: as §1, §2
Employing cultured cells of the first generation (chick embryo fibroblast),RSV was infected for about 30 minutes. To this were added the samples diluted stepwise, and, after 4 to 7 days, which stage the transformation of cells due to RSV infection was inhibited at was judged under microscope.
(§3) Employing MT-4 cells, HIV was infected for 1 hour at 37° C. To this were added the samples diluted stepwise, and, after 3 days, which stage the transformation of cells due to HIV infection was inhibited at was judged under microscope.

Assay [4] deals with HIV (human immunodeficiency virus). In words: Effect on HIV: inhibition of transformation of MT-4 cells due to HIV infection, Table 3. The note with it: Human immunodeficiency virus 1, MT4, 72 h, HIV infected 1 hour at 37° C, judged under microscope after 3 days, concentration at which transformation was inhibited, read-out: Antivirus effect (on HIV), Concentration. On the procedure: EFFECT ON HIV (HUMAN IMMUNODEFICIENCY VIRUS)
as §3

Where [5] appears, read: Moloney-murine leukemia virus, SC-1 cells, read-out: ED50 (the source's name).

`O=c1[nH]c(=S)ccn1[C@H]1CC[C@@H](CO)O1` [Compound of invention, 2',3'-dideoxy-4-thio-uridine]: the values for the minimal effective concentration in assay [1] and in assay [4] were 5 to 10 µg/mL and 10 µg/mL, respectively. Besides, the EC50 in assay [2] (setting [5]) amounted to 3.7 µM. For the same compound, the “antivirus effect compared with DDC” value in assay [3] is recorded as “excellent antivirus effect similar to that of DDC”.

As for `Nc1ccn([C@H]2CC[C@@H](CO)O2)c(=O)n1` [DDC, 2',3Dideoxy-cytidine], the minimal effective concentration in assay [1] was 0.5 to 1 µg/mL; in assay [4], 1 µg/mL. Moreover, in assay [2] (setting [5]), the EC50 stood at 4 µM.

As to `Cc1cn([C@H]2C[C@H](N=[N+]=[N-])[C@@H](CO)O2)c(=O)[nH]c1=O` [AZT, 3Azido-3deoxy-thymidine], in assay [2] (SC-1, read-out: ED50), the EC50 came out at 0.02 µM.
